Laboratory results published in patent US20260297060A1, “COMPOUNDS FOR THE DEGRADATION OF MUTANT BRAF” (C4 THERAPEUTICS, INC., priority 2023, published 2026).
Like-named read-outs stand apart in the source and are kept apart here.

What was measured:
A375-NRAS^Q61K cells = assay: CTGlo Cell Viability Assay, A375-NRAS^Q61K (A375.11) cells, 96 hours; assay type: cell-based, human; conditions: A375.11 (A375-NRAS^Q61K) cells; for CTGlo A375.11 96 hours Emax / Emax: lowest % viability achieved
Method in brief: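 A375 cells carrying BRAF V600E and NRAS Q61K were seeded at 250 cells/well with a 10-point half-log dose series (max 10 μM final). After 96 h at 37 °C, viability was read as ATP luminescence (CellTiter-Glo), background-subtracted and normalized to DMSO (100%). GI50 from 4-parameter fit; Emax is the lowest % viability.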

BRAF V600E = molecular target: T1, BRAF V600E (Homo sapiens, UniProt P15056+Q96SW2, V600E); assay: BRAF V600E HiBiT Degradation Assay; assay type: cell-based; conditions: for Emax: read-out: HiBiT-Degradation A375.10 BRAF 2 hours Emax
T1 construct: knock-in of the HiBiT tag to the endogenous BRAF V600E locus; host or cells: A375.10 (A375 clonal line, CRISPR HiBiT knock-in at the endogenous BRAF V600E locus)
T1 sequence (P15056 whole entry V600E): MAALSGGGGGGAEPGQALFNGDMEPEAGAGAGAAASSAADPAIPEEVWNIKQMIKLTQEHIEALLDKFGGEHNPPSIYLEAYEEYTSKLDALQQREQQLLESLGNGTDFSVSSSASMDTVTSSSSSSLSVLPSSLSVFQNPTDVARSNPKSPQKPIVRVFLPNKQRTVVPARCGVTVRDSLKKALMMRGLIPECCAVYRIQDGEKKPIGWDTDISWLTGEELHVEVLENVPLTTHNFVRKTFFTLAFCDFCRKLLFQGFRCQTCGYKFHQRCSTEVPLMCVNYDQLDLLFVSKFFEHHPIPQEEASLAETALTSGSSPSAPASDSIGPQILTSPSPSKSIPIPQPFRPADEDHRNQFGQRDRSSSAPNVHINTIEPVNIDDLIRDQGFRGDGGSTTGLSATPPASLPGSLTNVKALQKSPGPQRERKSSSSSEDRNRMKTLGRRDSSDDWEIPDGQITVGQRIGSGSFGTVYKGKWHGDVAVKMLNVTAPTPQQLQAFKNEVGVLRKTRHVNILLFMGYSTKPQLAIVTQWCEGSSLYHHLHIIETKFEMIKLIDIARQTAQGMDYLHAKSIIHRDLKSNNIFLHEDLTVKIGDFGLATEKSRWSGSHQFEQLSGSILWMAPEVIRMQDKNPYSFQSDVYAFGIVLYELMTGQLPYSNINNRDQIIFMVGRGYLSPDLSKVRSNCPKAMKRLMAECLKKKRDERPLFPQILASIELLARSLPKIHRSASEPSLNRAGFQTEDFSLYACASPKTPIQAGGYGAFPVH
T1 sequence (Q96SW2 whole entry): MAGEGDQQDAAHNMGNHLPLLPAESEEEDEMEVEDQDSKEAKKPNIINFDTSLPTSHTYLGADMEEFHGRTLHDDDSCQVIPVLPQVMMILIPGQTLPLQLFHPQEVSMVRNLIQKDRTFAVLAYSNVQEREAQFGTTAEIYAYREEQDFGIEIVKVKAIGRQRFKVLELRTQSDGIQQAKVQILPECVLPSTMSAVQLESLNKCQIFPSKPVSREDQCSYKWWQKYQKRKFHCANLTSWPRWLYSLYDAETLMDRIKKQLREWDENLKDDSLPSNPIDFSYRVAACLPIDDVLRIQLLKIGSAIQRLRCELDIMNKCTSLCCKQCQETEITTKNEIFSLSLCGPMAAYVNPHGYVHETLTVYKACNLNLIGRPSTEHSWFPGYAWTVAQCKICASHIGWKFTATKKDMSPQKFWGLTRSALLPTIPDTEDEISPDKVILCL
T1 sequence (Q16531 whole entry partner): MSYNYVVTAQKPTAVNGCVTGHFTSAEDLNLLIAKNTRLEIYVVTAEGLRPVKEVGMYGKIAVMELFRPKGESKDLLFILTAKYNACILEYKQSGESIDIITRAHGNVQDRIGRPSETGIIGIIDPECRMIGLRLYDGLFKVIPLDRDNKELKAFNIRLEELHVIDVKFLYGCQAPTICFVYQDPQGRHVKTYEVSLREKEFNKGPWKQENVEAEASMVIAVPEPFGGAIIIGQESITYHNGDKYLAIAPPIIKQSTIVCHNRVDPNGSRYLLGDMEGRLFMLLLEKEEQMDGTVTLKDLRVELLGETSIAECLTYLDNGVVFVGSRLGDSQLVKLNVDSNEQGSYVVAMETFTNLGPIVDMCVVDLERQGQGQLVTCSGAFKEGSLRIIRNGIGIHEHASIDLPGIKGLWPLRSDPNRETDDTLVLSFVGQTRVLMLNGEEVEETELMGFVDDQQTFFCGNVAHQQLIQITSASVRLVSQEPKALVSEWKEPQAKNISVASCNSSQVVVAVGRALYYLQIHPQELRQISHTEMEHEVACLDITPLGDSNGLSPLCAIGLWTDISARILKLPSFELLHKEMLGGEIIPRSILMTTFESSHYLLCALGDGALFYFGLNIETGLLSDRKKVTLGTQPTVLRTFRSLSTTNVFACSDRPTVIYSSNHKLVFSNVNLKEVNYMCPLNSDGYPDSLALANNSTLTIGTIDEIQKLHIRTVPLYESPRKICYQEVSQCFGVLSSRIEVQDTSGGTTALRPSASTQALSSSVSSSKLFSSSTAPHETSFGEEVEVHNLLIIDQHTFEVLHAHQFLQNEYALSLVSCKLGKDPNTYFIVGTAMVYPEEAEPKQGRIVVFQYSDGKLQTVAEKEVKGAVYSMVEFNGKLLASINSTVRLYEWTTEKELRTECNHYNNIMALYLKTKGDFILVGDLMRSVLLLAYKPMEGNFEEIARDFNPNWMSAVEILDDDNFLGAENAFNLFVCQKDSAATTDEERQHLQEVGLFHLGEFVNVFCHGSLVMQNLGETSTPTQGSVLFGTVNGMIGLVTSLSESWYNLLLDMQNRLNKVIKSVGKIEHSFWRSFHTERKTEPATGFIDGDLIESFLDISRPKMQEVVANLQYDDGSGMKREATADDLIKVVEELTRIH
Method in brief: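 Endogenous HiBiT knock-in on BRAF V600E in A375 cells (clone A375.10); 11-point half-log series, top 10 μM, 2, 6 or 24 h at 37° C. Lytic HiBiT luminescence, background-subtracted, normalized to DMSO; 4-parameter fit gives DC50, Emax (residual protein) and IP (inflection point).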

[1] = A375.10 cells, BRAF V600E, 2 hours, inflection point, read-out: HiBiT-Degradation A375.10 BRAF 2 hours IP
[2] = A375.10 cells, BRAF V600E, 2 hours, read-out: HiBiT-Degradation A375.10 BRAF 2 hours DC50
[3] = A375.10 cells, BRAF V600E, 2 hours, residual protein remaining

Row | SMILES | GI50 (A375-NRAS^Q61K cells) | CTGlo A375.11 96 hours Emax (A375-NRAS^Q61K cells) | HiBiT-Degradation A375.10 BRAF 2 hours Emax (BRAF V600E) | DC50 (BRAF V600E; [1]) | DC50 (BRAF V600E; [2]) | HiBiT-Degradation A375.10 BRAF 2 hours Emax (BRAF V600E; [3]) | DC50 (BRAF V600E; A375.10 cells, BRAF V600E, 6 hours, inflection point, read-out: HiBiT-Degradation A375.10 BRAF 6 hours IP) | DC50 (BRAF V600E; A375.10 cells, BRAF V600E, 6 hours, read-out: HiBiT-Degradation A375.10 BRAF 6 hours DC50) | HiBiT-Degradation A375.10 BRAF 6 hours Emax (BRAF V600E; A375.10 cells, BRAF V600E, 6 hours, residual protein remaining) | HiBiT-Degradation A375.10 BRAF 24 hours Emax (BRAF V600E; A375.10 cells, HiBiT, BRAF V600E, 24 hours) | DC50 (BRAF V600E; A375.10 cells, HiBiT, BRAF V600E, 24 hours, read-out: HiBiT-Degradation A375.10 BRAF 24 hours DC50) | DC50 (BRAF V600E; A375.10 cells, HiBiT, BRAF V600E, 24 hours, read-out: HiBiT-Degradation A375.10 BRAF 24 hours IP) | GI50 (A375-NRAS^Q61K cells; Homo sapiens, 96 h) | Emax (A375-NRAS^Q61K cells; Homo sapiens, 96 h) | Emax (BRAF V600E; [3])
1 | CCN(C)S(=O)(=O)Nc1ccc(F)c(Oc2ccc3ncc(OCC4CCN(C5CCC(c6cc7c(cc6F)c(N6CCC(=O)NC6=O)nn7C)CC5)CC4)nc3c2)c1C#N (single isomer, unassigned) [Compound 119, 7-[2-cyano-3-[[ethyl(methyl)sulfamoyl]amino]-6-fluoro-phenoxy]-2-[[1-[4-[3-(2,4-dioxohexahydropyrimidin-1-yl)-5-fluoro-1-methyl-indazol-6-yl]cyclohexyl]-4-piperidyl]methoxy]quinoxaline] | 1000 to 10000 nM | ** (<90% and >50%) | ** (<90% and >50%) | < 1000 nM | < 1000 nM |  |  |  |  |  |  |  |  |  | 
2 | Cn1nc(N2CCC(=O)NC2=O)c2cc(F)c(C3CCC(N4CCC5(CC4)CC(n4cnc6ccc(Oc7c(F)ccc(NS(=O)(=O)N8CC[C@@H](F)C8)c7C#N)cc6c4=O)C5)CC3)cc21 (single isomer, unassigned) [Compound 123] | < 1000 nM | *** (<=50%) |  | < 1000 nM | < 1000 nM | *** (<=50%) | < 1000 nM | < 1000 nM | *** (<=50%) | *** (<=50%) | < 1000 nM | < 1000 nM |  |  | 
3 | CCN(C)S(=O)(=O)Nc1ccc(F)c(Oc2ccc3ncc(OC4CCN(C5CCC(c6cc7c(cc6F)c(N6CCC(=O)NC6=O)nn7C)CC5)CC4)nc3c2)c1C#N (single isomer, unassigned) [Compound 124, 7-[2-cyano-3-[[ethyl(methyl)sulfamoyl]amino]-6-fluoro-phenoxy]-2-[[1-[4-[3-(2,4-dioxohexahydropyrimidin-1-yl)-5-fluoro-1-methyl-indazol-6-yl]cyclohexyl]-4-piperidyl]oxy]quinoxaline] |  |  |  | < 1000 nM | 1000 to 10000 nM |  |  |  |  |  |  |  | > 10000 nM | 50 to 90% | < 50%
4 | CCN(C)S(=O)(=O)Nc1ccc(F)c(Oc2ccc3ncc(CCC4CCN(C5CCC(c6cc7c(cc6F)c(N6CCC(=O)NC6=O)nn7C)CC5)CC4)nc3c2)c1C#N (single isomer, unassigned) [Compound 128, 7-[2-cyano-3-[[ethyl(methyl)sulfamoyl]amino]-6-fluoro-phenoxy]-2-[2-[1-[4-[3-(2,4-dioxohexahydropyrimidin-1-yl)-5-fluoro-1-methyl-indazol-6-yl]cyclohexyl]-4-piperidyl]ethyl]quinoxaline] | > 10000 nM |  |  | < 1000 nM | > 10000 nM |  |  |  |  |  |  |  |  | 50 to 90% | 50 to 90%
5 | CCN(C)S(=O)(=O)Nc1ccc(F)c(Oc2ccc3ncc(CCC4CCN(C5CCC(c6cc7c(cc6F)c(N6CCC(=O)NC6=O)nn7C)CC5)CC4)nc3c2)c1C#N (single isomer, unassigned) [Compound 129, 7-[2-cyano-3-[[ethyl(methyl)sulfamoyl]amino]-6-fluoro-phenoxy]-2-[2-[1-[4-[3-(2,4-dioxohexahydropyrimidin-1-yl)-5-fluoro-1-methyl-indazol-6-yl]cyclohexyl]-4-piperidyl]ethyl]quinoxaline] | 1000 to 10000 nM | ** (<90% and >50%) |  | < 1000 nM | < 1000 nM | ** (<90% and >50%) |  |  |  |  |  |  |  |  | 
6 | CCN(C)S(=O)(=O)Nc1ccc(F)c(Oc2ccc3ncc(CCC4CCN(C5CCC(c6ccc(NC7CCC(=O)NC7=O)cc6F)CC5)CC4)nc3c2)c1C#N (single isomer, unassigned) [Compound 131, 7-[2-cyano-3-[[ethyl(methyl)sulfamoyl]amino]-6-fluoro-phenoxy]-2-[2-[1-[4-[4-[(2,6-dioxo-3-piperidyl)amino]-2-fluoro-phenyl]cyclohexyl]-4-piperidyl]ethyl]quinoxaline] | > 10000 nM |  |  | < 1000 nM | > 10000 nM |  |  |  |  |  |  |  |  | 50 to 90% | 50 to 90%
7 | CCN(C)S(=O)(=O)Nc1ccc(F)c(Oc2ccc3ncc(CCC4CCN(C5CCC(c6ccc(NC7CCC(=O)NC7=O)cc6F)CC5)CC4)nc3c2)c1C#N (single isomer, unassigned) [Compound 132, 7-[2-cyano-3-[[ethyl(methyl)sulfamoyl]amino]-6-fluoro-phenoxy]-2-[2-[1-[4-[4-[(2,6-dioxo-3-piperidyl)amino]-2-fluoro-phenyl]cyclohexyl]-4-piperidyl]ethyl]quinoxaline] | < 1000 nM | ** (<90% and >50%) |  | < 1000 nM | < 1000 nM | *** (<=50%) |  |  |  |  |  |  |  |  | 
8 | N#Cc1c(NS(=O)(=O)C2CCCC2)ccc(F)c1Oc1ccc2ncn([C@H]3COC4(CCN(C5CCC(c6ccc(NC7CCC(=O)NC7=O)cc6F)CC5)CC4)C3)c(=O)c2c1 (single isomer, unassigned) [Compound 136] |  |  |  | < 1000 nM | < 1000 nM |  |  |  |  |  |  |  | < 1000 nM | < 50% | < 50%
9 | CCN(C)S(=O)(=O)Nc1ccc(F)c(Oc2ccc3ncn(CCC4CCN(C5CCC(c6cc7c(cc6F)c(N6CCC(=O)NC6=O)nn7C)CC5)CC4)c(=O)c3c2)c1C#N (single isomer, unassigned) [Compound 137, 6-[2-cyano-3-[[ethyl(methyl)sulfamoyl]amino]-6-fluoro-phenoxy]-3-[2-[1-[4-[3-(2,4-dioxohexahydropyrimidin-1-yl)-5-fluoro-1-methyl-indazol-6-yl]cyclohexyl]-4-piperidyl]ethyl]-4-oxo-quinazoline] |  |  |  | < 1000 nM | < 1000 nM |  |  |  |  |  |  |  | 1000 to 10000 nM | 50 to 90% | 50 to 90%
10 | CCN(C)S(=O)(=O)Nc1ccc(F)c(Oc2ccc3ncn(CCC4CCN(C5CCC(c6cc7c(cc6F)c(N6CCC(=O)NC6=O)nn7C)CC5)CC4)c(=O)c3c2)c1C#N (single isomer, unassigned) [Compound 138, 6-[2-cyano-3-[[ethyl(methyl)sulfamoyl]amino]-6-fluoro-phenoxy]-3-[2-[1-[4-[3-(2,4-dioxohexahydropyrimidin-1-yl)-5-fluoro-1-methyl-indazol-6-yl]cyclohexyl]-4-piperidyl]ethyl]-4-oxo-quinazoline] | 1000 to 10000 nM | ** (<90% and >50%) |  | < 1000 nM | 1000 to 10000 nM | ** (<90% and >50%) |  |  |  |  |  |  |  |  | 
11 | CO[C@H]1CCN(S(=O)(=O)Nc2ccc(F)c(Oc3ccc4ncn([C@H]5COC6(CCN(C7CCC(c8ccc(NC9CCC(=O)NC9=O)cc8F)CC7)CC6)C5)c(=O)c4c3)c2C#N)C1 (single isomer, unassigned) [Compound 140] |  |  |  | < 1000 nM | < 1000 nM |  |  |  |  |  |  |  | < 1000 nM | < 50% | < 50%
12 | N#Cc1c(NS(=O)(=O)N2CC[C@@H](F)C2)ccc(F)c1Oc1ccc2ncn(C3COC4(CCN(C5CCC(c6ccc(NC7CCC(=O)NC7=O)cc6F)CC5)CC4)C3)c(=O)c2c1 (single isomer, unassigned) [Compound 143] |  |  |  | < 1000 nM | < 1000 nM |  |  |  |  |  |  |  | < 1000 nM | < 50% | < 50%
13 | CN(CCO)S(=O)(=O)Nc1ccc(F)c(Oc2ccc3ncn(C4CC5(CCN(C6CCC(c7cc8c(cc7F)c(N7CCC(=O)NC7=O)nn8C)CC6F)CC5)C4)c(=O)c3c2)c1C#N (single isomer, unassigned) [Compound 146, 6-[2-cyano-6-fluoro-3-[[2-hydroxyethyl(methyl)sulfamoyl]amino]phenoxy]-3-[7-[4-[3-(2,4-dioxohexahydropyrimidin-1-yl)-5-fluoro-1-methyl-indazol-6-yl]-2-fluoro-cyclohexyl]-7-azaspiro[3.5]nonan-2-yl]-4-oxo-quinazoline] | > 10000 nM | ** (<90% and >50%) | ** (<90% and >50%) | < 1000 nM | > 10000 nM |  |  |  |  |  |  |  |  |  | 
14 | CCN(C)S(=O)(=O)Nc1ccc(F)c(Oc2ccc3ncc(CC4CCN(C5CCC(c6ccc(NC7CCC(=O)NC7=O)cc6F)CC5)CC4)nc3c2)c1C#N (single isomer, unassigned) [Compound 147, 7-[2-cyano-3-[[ethyl(methyl)sulfamoyl]amino]-6-fluoro-phenoxy]-2-[[1-[4-[4-[(2,6-dioxo-3-piperidyl)amino]-2-fluoro-phenyl]cyclohexyl]-4-piperidyl]methyl]quinoxaline] |  |  |  | < 1000 nM | > 10000 nM |  |  |  |  |  |  |  | > 10000 nM | 50 to 90% | 50 to 90%
